Results: US6573289B1, “Naphthalene derivatives, their production and use” (Takeda Chemical Industries, Ltd., priority 1998, dated 2003)
Counter-ions that a name gives are not always drawn.

How the values were obtained:
Rat Steroid C17-20-Lyase = biological target: T1, Rat Steroid C17-20-Lyase (Rattus norvegicus, UniProt P11715); assay: Assay of inhibitory activity on rat steroid C17-20-lyase in vitro; assay type: biochemical; details: rat testicular microsomes, 10 nM [1,2-3H]-17-α-hydroxyprogesterone, NADPH, 7 min at 37° C.; products testosterone and androstenedione reduced by 50%
T1 construct: testicular microsomes were prepared by a series of centrifugation; from tissue; host or cells: testicular microsomes of 13-week old male SD rats
T1 sequence (P11715 1-507): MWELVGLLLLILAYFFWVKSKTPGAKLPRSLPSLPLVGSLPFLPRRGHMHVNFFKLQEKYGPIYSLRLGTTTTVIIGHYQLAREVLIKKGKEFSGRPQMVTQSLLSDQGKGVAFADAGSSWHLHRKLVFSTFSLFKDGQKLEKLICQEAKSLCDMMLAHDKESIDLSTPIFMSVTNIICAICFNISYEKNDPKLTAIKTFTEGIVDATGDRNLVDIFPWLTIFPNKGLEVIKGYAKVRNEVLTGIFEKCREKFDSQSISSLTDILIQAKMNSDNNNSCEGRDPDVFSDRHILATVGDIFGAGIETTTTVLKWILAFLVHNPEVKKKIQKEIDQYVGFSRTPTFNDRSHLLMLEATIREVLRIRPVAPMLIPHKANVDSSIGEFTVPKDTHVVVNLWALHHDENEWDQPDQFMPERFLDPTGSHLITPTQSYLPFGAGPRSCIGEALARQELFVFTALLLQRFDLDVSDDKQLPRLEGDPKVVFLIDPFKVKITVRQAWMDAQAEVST
Protocol: Assay of Inhibitory Activity on Rat Steroid C17-20-Lyase In Vitro
Inhibitory activity was determined according to the method described in The Prostate, vol.26, 140-150(1995) with some modifications.
Testes excised from 13-week old, male SD rats were homogenized, and testicular microsomes were prepared by a series of centrifugation. The microsome protein (7 μg/10 μl) was added to 10 μl of 100 mM phosphate buffer (pH 7.4) in which 10 nM (final concentration) [1,2-3H]-17-α-hydroxyprogesterone, NADPH, and test compounds were dissolved. The reaction mixture was incubated for 7 min at 37° C., terminated by addition of 40 μl of Ethyl acetate, and briefly centrifuged. The substrate and the products (testosterone and androstenedione) in the upper phase were separated by silica gel thin layer chromatography. Detection of the spots and measurement of the radioactivity were performed by a BAS 2000 Bioimage analyzer. The concentration of the test compounds necessary to reduce the concentration of the products by 50% (The concentration in the control group in which no test compound was added was taken as 100%) was calculated, and shown in Table 1.

[1] = system: testosterone biosynthesis; assay: Assay of inhibitory activity on testosterone biosynthesis in rat; assay type: in vivo; details: male SD rats, oral, 50 mg/kg, serum testosterone 2 h later, percentage of control group
Protocol: Assay of Inhibitory Activity on Testosterone Biosynthesis in Rat
Test compounds were orally administered to 9-week old, male SD (Spague-Dawley) rats at a dose of 50 mg/kg. Two-h later blood was taken and testosterone concentration in serum was measured by radioimmunoassay. The percentage of the testosterone concentration of the groups of rats, which received test compounds, to that of the control group was calculated, and regarded as the inhibitory activity.

Row | Structure (SMILES) | IC50 (Rat Steroid C17-20-Lyase) [nM] | Inhibitory activity on testosterone biosynthesis (T/C, %) [1] [%]
1 | COc1ccc2cc(C(O)(c3c[nH]cn3)C3CC3)ccc2c1 (stereo not drawn) [Example 4, Cyclopropyl-(6-methoxynaphthalen-2-yl)-(1H-imidazol-4-yl)methanol Fumarate] | 64 | 
2 | COc1ccc2cc(C(O)(c3c[nH]cn3)C(C)C)ccc2c1F (stereo not drawn) [Example 11, 1-(5-Fluoro-6-methoxynaphthalen-2-yl)-1-(1H-imidazol-4-yl)-2-methyl-1-propanol] | 32 | 9.0
3 | COc1ccc2cc(C(C)(OC)c3c[nH]cn3)ccc2c1 (stereo not drawn) [Example 19, 4-[1-Methoxy-1-(6-methoxynaphthalen-2-yl)ethyl]-1H-imidazole] | 35 | 
4 | COc1ccc2cc(C(O)(c3c[nH]cn3)C(C)C)ccc2c1 (stereo not drawn) [Example 1, 1-(1H-Imidazol-4-yl)-1-(6-methoxynaphthalen-2-yl)-2-methyl-1-propanol] | 33 | 2.0
5 | CCC(O)(c1ccc2cc(OC)ccc2c1)c1c[nH]cn1 (stereo not drawn) [Example 12, 1-(1H-Imidazol-4-yl)-1-(6-methoxynaphthalen-2-yl)-1-propanol] | 41 | 10
6 | COc1ccc2cc(C(O)(c3ccncc3)C(C)C)ccc2c1 (stereo not drawn) [Example 9, 1-(6-Methoxynaphthalen-2-yl)-2-methyl-1-(pyridin-4-yl)-1-propanol] | 32 | 
